From ChEMBL document CHEMBL5715954, “Silencing c-Myc translation as a therapeutic strategy through targeting PI3Kδ and CK1ε in hematological malignancies” (Blood, 2017)

Key:
Design in all cases: scale not given: the % may be the effect or the level left
[1] = target: ALK tyrosine kinase receptor (Homo sapiens) (UniProt Q9UM73); experiment: Inhibition of human ALK assessed as enzyme activity at 1 uM using poly[Glu:Tyr] (4:1) as substrate preincubated for 20 mins followed by [gamma-33P]-ATP addition and measured after 120 mins by radiometric Hot-SpotSM Kinase assay relative to control
[2] = target: T1, Protein kinase C zeta type (Homo sapiens) (UniProt Q05513); experiment: Inhibition of human PKCzeta assessed as enzyme activity at 1 uM using ERMRPRKRQGSVRRRV as substrate preincubated for 20 mins followed by [gamma-33P]-ATP addition and measured after 120 mins by radiometric Hot-SpotSM Kinase assay relative to control
T1 sequence (whole entry): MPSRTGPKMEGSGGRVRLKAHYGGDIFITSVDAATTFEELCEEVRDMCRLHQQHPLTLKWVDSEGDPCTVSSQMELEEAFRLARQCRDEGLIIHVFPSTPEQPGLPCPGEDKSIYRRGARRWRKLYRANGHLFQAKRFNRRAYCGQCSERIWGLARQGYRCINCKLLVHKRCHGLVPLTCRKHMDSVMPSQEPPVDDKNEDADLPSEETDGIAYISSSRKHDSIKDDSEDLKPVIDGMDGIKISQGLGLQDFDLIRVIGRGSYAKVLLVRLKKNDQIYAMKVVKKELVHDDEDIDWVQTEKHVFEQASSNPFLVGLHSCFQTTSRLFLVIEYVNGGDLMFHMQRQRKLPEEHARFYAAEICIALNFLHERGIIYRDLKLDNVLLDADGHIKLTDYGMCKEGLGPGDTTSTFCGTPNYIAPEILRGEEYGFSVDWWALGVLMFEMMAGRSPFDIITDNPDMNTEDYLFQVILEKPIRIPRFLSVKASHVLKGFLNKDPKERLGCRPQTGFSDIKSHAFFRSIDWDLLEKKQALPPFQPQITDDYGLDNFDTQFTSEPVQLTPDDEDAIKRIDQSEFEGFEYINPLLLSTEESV

[3] = target: CDK6/cyclin D3 (Homo sapiens) (UniProt P30281+Q00534); experiment: Inhibition of human CDK6/cyclin D3 assessed as enzyme activity at 1 uM using RB Protein as substrate preincubated for 20 mins followed by [gamma-33P]-ATP addition and measured after 120 mins by radiometric Hot-SpotSM Kinase assay relative to control; assay type: protein-complex assay
[4] = target: CDK6/cyclin D1 (Homo sapiens) (UniProt P24385+Q00534); experiment: Inhibition of human CDK6/cyclin D1 assessed as enzyme activity at 1 uM using RB Protein as substrate preincubated for 20 mins followed by [gamma-33P]-ATP addition and measured after 120 mins by radiometric Hot-SpotSM Kinase assay relative to control; assay type: protein-complex assay
[5] = target: Cyclin-dependent kinase 5/CDK5 activator 1 (Homo sapiens) (UniProt Q00535+Q15078); experiment: Inhibition of human CDK5/p35 assessed as enzyme activity at 1 uM using RB Protein as substrate preincubated for 20 mins followed by [gamma-33P]-ATP addition and measured after 120 mins by radiometric Hot-SpotSM Kinase assay relative to control; assay type: protein-complex assay
[6] = target: T2, Rhodopsin kinase GRK7 (Homo sapiens) (UniProt Q8WTQ7); experiment: Inhibition of human GRK7 assessed as enzyme activity at 1 uM using casein as substrate preincubated for 20 mins followed by [gamma-33P]-ATP addition and measured after 120 mins by radiometric Hot-SpotSM Kinase assay relative to control
T2 sequence (whole entry): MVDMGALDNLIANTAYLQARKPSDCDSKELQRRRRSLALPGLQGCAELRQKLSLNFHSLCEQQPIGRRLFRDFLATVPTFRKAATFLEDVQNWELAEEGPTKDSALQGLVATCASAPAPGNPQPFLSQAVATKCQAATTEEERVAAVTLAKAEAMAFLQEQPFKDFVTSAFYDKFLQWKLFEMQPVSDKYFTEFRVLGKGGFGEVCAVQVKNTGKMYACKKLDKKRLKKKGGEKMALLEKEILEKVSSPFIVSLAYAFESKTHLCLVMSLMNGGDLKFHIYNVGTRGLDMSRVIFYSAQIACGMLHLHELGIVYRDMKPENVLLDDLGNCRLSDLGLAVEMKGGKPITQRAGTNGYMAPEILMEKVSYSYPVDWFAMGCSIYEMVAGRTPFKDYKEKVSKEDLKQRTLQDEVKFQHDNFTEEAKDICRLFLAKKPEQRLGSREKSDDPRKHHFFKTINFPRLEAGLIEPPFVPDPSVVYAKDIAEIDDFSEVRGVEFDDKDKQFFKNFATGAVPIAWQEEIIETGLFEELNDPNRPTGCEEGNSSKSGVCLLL

[7] = target: Serine/threonine-protein kinase PAK 6 (Homo sapiens) (UniProt Q9NQU5); experiment: Inhibition of human PAK6 assessed as enzyme activity at 1 uM using RRRLSFAEPG as substrate preincubated for 20 mins followed by [gamma-33P]-ATP addition and measured after 120 mins by radiometric Hot-SpotSM Kinase assay relative to control
[8] = target: T3, Tyrosine-protein kinase TXK (Homo sapiens) (UniProt P42681); experiment: Inhibition of human TXK assessed as enzyme activity at 1 uM using EAIYAAPFAKKK as substrate preincubated for 20 mins followed by [gamma-33P]-ATP addition and measured after 120 mins by radiometric Hot-SpotSM Kinase assay relative to control
T3 sequence (whole entry): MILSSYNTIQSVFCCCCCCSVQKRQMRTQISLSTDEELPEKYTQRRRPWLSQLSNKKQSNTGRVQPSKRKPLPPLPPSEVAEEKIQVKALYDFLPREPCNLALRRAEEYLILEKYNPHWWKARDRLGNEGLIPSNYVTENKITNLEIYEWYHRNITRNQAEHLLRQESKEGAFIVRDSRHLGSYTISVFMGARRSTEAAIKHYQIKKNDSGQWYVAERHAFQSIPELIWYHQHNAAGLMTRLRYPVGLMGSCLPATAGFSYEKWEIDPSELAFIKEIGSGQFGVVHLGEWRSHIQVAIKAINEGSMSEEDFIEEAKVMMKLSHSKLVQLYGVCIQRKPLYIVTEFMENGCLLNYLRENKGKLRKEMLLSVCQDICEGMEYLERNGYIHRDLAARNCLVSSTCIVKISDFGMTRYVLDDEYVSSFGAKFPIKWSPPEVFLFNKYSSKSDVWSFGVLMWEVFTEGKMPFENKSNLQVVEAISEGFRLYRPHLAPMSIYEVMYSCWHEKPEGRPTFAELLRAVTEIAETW

Serine/threonine-protein kinase PAK 6 (Homo sapiens), sequence (Q9NQU5 whole entry, looked up): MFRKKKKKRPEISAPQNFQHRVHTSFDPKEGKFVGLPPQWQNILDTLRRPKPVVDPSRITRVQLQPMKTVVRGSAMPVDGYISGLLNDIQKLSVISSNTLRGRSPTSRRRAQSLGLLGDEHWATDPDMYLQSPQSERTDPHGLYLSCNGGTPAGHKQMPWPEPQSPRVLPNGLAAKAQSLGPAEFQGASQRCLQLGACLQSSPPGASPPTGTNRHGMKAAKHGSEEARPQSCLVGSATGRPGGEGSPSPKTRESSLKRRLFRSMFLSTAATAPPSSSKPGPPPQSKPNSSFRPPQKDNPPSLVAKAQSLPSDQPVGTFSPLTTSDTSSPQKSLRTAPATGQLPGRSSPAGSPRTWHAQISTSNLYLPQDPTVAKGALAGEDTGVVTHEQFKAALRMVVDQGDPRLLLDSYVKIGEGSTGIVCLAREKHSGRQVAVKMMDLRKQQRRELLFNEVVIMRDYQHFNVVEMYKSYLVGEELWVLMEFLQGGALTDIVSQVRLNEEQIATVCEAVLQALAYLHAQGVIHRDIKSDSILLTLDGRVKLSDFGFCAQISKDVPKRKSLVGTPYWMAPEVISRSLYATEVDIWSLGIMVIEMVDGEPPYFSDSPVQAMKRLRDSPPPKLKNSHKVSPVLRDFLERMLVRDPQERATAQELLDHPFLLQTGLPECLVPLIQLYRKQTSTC
Cyclin-dependent kinase 5/CDK5 activator 1 (Homo sapiens), sequence (Q00535 whole entry): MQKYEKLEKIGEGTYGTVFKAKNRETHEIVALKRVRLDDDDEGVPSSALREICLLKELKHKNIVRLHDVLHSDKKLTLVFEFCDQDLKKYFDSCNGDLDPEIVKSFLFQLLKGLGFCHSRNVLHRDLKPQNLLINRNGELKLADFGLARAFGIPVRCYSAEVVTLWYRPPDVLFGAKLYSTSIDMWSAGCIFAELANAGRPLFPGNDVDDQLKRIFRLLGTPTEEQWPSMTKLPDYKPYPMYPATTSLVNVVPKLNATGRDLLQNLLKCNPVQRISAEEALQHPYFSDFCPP
Cyclin-dependent kinase 5/CDK5 activator 1 (Homo sapiens), sequence (Q15078 99-307 partner limits assumed): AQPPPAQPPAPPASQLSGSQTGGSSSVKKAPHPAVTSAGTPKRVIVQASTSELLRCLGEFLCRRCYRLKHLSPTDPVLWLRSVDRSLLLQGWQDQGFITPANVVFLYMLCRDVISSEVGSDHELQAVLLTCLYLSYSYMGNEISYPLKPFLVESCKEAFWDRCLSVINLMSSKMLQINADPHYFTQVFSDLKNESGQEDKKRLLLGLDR
ALK tyrosine kinase receptor (Homo sapiens), sequence (Q9UM73 19-1620 limits assumed): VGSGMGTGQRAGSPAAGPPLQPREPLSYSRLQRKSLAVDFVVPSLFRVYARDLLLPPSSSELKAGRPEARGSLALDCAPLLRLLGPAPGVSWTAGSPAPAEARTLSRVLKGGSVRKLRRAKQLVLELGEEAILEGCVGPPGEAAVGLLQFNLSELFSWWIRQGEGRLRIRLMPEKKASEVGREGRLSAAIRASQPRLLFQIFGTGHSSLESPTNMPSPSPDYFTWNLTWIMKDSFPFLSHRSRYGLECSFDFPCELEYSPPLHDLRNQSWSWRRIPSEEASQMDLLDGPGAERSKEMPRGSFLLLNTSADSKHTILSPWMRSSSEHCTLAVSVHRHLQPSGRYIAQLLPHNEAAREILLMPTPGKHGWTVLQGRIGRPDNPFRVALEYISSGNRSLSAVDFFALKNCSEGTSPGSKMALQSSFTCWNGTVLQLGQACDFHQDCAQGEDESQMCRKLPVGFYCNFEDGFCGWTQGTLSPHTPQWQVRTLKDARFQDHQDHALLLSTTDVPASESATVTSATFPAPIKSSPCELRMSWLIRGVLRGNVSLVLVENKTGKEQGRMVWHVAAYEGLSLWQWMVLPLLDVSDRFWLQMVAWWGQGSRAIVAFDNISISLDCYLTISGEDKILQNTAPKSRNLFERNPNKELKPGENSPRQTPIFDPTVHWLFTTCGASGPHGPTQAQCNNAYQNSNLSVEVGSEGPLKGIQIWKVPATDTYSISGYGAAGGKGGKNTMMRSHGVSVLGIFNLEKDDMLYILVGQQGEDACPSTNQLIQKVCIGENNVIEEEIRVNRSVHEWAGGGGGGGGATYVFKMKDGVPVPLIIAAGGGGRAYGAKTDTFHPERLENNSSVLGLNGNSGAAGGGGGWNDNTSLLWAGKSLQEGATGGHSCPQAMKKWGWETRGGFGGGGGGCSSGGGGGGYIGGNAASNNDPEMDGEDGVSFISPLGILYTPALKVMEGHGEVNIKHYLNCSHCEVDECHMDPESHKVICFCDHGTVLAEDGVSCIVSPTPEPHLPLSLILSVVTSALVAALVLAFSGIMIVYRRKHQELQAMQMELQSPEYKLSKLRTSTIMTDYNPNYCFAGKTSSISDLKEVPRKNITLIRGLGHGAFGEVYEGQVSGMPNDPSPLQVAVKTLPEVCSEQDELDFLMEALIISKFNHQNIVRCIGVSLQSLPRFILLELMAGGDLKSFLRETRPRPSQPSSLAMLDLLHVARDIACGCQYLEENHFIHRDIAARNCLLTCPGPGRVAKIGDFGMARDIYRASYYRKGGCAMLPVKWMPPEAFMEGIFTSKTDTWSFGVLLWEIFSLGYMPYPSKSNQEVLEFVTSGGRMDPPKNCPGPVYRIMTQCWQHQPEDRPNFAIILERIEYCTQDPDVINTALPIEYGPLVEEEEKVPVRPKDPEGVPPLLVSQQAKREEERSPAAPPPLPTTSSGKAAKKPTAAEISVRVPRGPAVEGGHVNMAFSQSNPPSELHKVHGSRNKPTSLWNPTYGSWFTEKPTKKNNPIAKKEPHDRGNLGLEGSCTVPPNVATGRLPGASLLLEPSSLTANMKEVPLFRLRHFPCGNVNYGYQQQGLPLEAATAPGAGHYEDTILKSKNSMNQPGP

Row | Compound | Activity [1] | Activity [2] | Activity [3] | Activity [4] | Activity [5] | Activity [6] | Activity [7] | Activity [8]
1 | C[C@H](Nc1ncnc2nc[nH]c12)c1cc2cccc(Cl)c2c(=O)n1-c1ccccc1 | 96.7% | 89.9% | 96.5% | 91.3% | 97.1% | 101% | 99.5% | 101%
2 | CC[C@H](Nc1ncnc2[nH]cnc12)c1nc2cccc(F)c2c(=O)n1-c1ccccc1 | 100% | 91.5% | 102% | 94.6% | 97.4% | 95% | 102% | 109%
3 | CC(C)Oc1ccc(-c2nn([C@@H](C)c3oc4ccc(F)cc4c(=O)c3-c3cccc(F)c3)c3ncnc(N)c23)cc1F [UMBRALISIB] | 96.5% | 93.6% | 97.8% | 89.2% | 91.7% | 100% | 97.2% | 111%
